Test results: ChEMBL document CHEMBL1142640, “New natural product isolation and comparison of the secondary metabolite content of three distinct samples of the sea hare Aplysia dactylomela from tenerife” (J Nat Prod, 2000)
In brackets after ≈: the same amount, converted by molar mass. Activity calls are given as the source filed them. The rule behind the calls is not given here.

Columns and labels:
[1] = test system: Microbotryum violaceum; assay: Antifungal activity against Microbotryum violaceae at 50 ug/disk; format: functional
[2] = test system: Aspergillus pseudoglaucus; assay: Antifungal activity against Eurotium repens at 50 ug/disk; format: functional
[3] = test system: Fusarium oxysporum; assay: Antifungal activity against Fusarium oxysporum at 50 ug/disk; format: functional
[4] = test system: [Chlorella] fusca; assay: Antialgal activity against Chlorella fusca assessed as no colonies of test organism growing within inhibition zone at 50 ug/disk; format: functional; conditions: Scenedesmus fuscus; read-out: IZ
[5] = test system: Artemia salina; assay: (§1) Toxicity in Artemia salina at 0.5 mg/mL after 48 hrs; format: organism-based; conditions: in vivo, 48 h
[6] = Cytotoxicity against human HMO2 cells; format: functional, cell-based
[7] = test system: HepG2; assay: Cytotoxicity against human HepG2 cells; format: functional, cell-based
[8] = test system: MCF7; assay: Cytotoxicity against human MCF7 cells; format: functional, cell-based
[9] = test system: Lu1; assay: Cytotoxicity against human Lu1 cells; format: functional, cell-based
[10] = test system: KB; assay: Cytotoxicity against human KB cells; format: functional, cell-based
[11] = test system: ZR-75-1; assay: Cytotoxicity against human ZR-75-1 cells; format: functional, cell-based
[12] = Antibacterial activity against Escherichia coli assessed as few colonies of test organism growing within inhibition zone at 50 ug/disk; conditions: read-out: IZ
[13] = test system: Priestia megaterium; assay: Antibacterial activity against Bacillus megaterium at 50 ug/disk; format: functional
[14] = test system: Escherichia coli; assay: Antibacterial activity against Escherichia coli at 50 ug/disk; format: functional
[15] = test system: [Chlorella] fusca; assay: Antialgal activity against Chlorella fusca at 50 ug/disk; format: functional; conditions: Scenedesmus fuscus
[16] = test system: Microbotryum violaceum; assay: Antifungal activity against Microbotryum violaceae assessed as few colonies of test organism growing within inhibition zone at 50 ug/disk; format: functional; conditions: read-out: IZ
[17] = test system: Aspergillus pseudoglaucus; assay: Antifungal activity against Eurotium repens assessed as few colonies of test organism growing within inhibition zone at 50 ug/disk; format: functional; conditions: read-out: IZ
[18] = test system: Mycobacterium avium; assay: Antitubercular activity against Mycobacterium avium; format: functional
[19] = test system: Caenorhabditis elegans; assay: Nematicidal activity against Caenorhabditis elegans; format: functional, organism-based
[20] = target: Human immunodeficiency virus type 1 reverse transcriptase (Human immunodeficiency virus 1) (UniProt Q72547); assay: Inhibition of HIV1 reverse transcriptase
[21] = target: Tyrosine-protein kinase Lck (Homo sapiens) (UniProt P06239); assay: Inhibition of p56lck
[22] = test system: Microbotryum violaceum; assay: Antifungal activity against Microbotryum violaceae assessed as no colonies of test organism growing within inhibition zone at 50 ug/disk; format: functional; conditions: read-out: IZ
[23] = test system: [Chlorella] fusca; assay: Antialgal activity against Chlorella fusca; format: functional, Scenedesmus fuscus
[24] = as §1; format: organism-based; conditions: in vivo, read-out: Activity
[25] = test system: Mycobacterium tuberculosis; assay: Antitubercular activity against Mycobacterium tuberculosis; format: functional
[26] = test system: HeLa; assay: Cytotoxicity against human HeLa cells; format: functional, cell-based
[27] = test system: Mycotypha microspora; assay: Antifungal activity against Mycotypha microspora at 50 ug/disk; format: functional
[28] = test system: Priestia megaterium; assay: Antibacterial activity against Bacillus megaterium assessed as no colonies of test organism growing within inhibition zone at 50 ug/disk; format: functional; conditions: read-out: IZ
[29] = test system: Mycotypha microspora; assay: Antifungal activity against Mycotypha microspora assessed as few colonies of test organism growing within inhibition zone at 50 ug/disk; format: functional; conditions: read-out: IZ
[30] = Toxicity in Artemia salina at 0.5 mg/mL after 24 hrs; format: organism-based; conditions: in vivo, read-out: Activity
[31] = test system: [Chlorella] fusca; assay: Antialgal activity against Chlorella fusca assessed as few colonies of test organism growing within inhibition zone at 50 ug/disk; format: functional; conditions: Scenedesmus fuscus; read-out: IZ
[32] = test system: A549; assay: Cytotoxicity against human A549 cells; format: functional, cell-based
[33] = test system: HT-29; assay: Cytotoxicity against human HT29 cells; format: functional, cell-based
[34] = Cytotoxicity against human MEL28 cells; format: functional, cell-based; conditions: SK-MEL-28
[35] = test system: P388; assay: Cytotoxicity against mouse P388 cells; format: functional, cell-based
[36] = test system: Fusarium oxysporum; assay: Antifungal activity against Fusarium oxysporum assessed as few colonies of test organism growing within inhibition zone at 50 ug/disk; format: functional; conditions: read-out: IZ
[37] = Cytotoxicity against rat L6 cells; format: cell-based; conditions: read-out: MIC
[38] = test system: Trypanosoma cruzi; assay: Antitrypanosomal activity against Trypanosoma cruzi; format: functional, organism-based
[39] = test system: Mycotypha microspora; assay: Antifungal activity against Mycotypha microspora assessed as no colonies of test organism growing within inhibition zone at 50 ug/disk; format: functional; conditions: read-out: IZ

Tyrosine-protein kinase Lck (Homo sapiens), sequence (P06239 2-509 limits assumed): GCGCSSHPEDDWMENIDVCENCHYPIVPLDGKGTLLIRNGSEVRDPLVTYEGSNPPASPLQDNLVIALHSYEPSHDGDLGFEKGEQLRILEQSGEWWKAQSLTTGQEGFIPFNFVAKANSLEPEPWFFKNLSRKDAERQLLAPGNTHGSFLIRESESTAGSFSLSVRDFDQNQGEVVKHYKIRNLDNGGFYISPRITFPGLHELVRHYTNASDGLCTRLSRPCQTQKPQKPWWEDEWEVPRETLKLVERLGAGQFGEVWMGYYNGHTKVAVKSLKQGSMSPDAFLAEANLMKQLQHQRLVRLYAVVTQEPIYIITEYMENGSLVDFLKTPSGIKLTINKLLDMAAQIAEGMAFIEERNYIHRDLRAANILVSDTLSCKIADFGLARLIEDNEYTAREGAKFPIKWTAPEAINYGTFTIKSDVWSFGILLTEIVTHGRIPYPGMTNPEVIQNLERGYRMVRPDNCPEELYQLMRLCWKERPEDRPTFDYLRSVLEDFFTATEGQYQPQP

SMILES	IC50 [6]	IC50 [7]	IC50 [8]	IC50 [9]	IC50 [10]	IC50 [11]	Activity [13]	Activity [14]	Activity [15]	zone of inhibition at 50 µg/disc [17]	Activity [19]	Activity [20]	Activity [21]	mortality at 48 h, 0.5 mg/mL [24]	IC50 [26]	further results
C[C@](Cl)(/C=C/Br)[C@@H](Cl)/C=C/C(=C\Cl)C(Cl)Cl	1.1 µg/mL (≈ 2.84 µM)	1 µg/mL (≈ 2.58 µM)	1.5 µg/mL (≈ 3.87 µM)	> 25 µg/mL	> 25 µg/mL	> 25 µg/mL	–	–	–	–	–	–	–	–	–	Activity [1]: inactive; Activity [2]: inactive; Activity [3]: inactive; zone of inhibition at 50 µg/disc [4]: 1 mm; Activity [5]: Not Active; zone of inhibition at 50 µg/disc [12]: 2 mm
CC(=O)O[C@@H](C=C(C)C)C/C(C)=C1\CC[C@](C)(Br)[C@@H](Cl)C1	–	–	–	> 25 µg/mL	> 25 µg/mL	> 25 µg/mL	inactive	inactive	inactive	2 mm	–	–	–	–	–	zone of inhibition at 50 µg/disc [16]: 1 mm; Activity [5]: Not Active
C[C@]1(/C=C/Cl)C[C@](Cl)(CBr)[C@@H](Br)C[C@H]1Cl	–	–	–	12.9 µg/mL (≈ 32.3 µM)	13.3 µg/mL (≈ 33.3 µM)	7.8 µg/mL (≈ 19.5 µM)	inactive	inactive	–	–	Active	inactive	inactive	100%	–	MIC [18]: 34 µg/mL (≈ 85.1 µM); zone of inhibition at 50 µg/disc [22]: 2 mm; zone of inhibition at 50 µg/disc [4]: 16 mm; MIC [23]: 7 µg; MIC [25]: 32 µg/mL (≈ 80.1 µM)
C[C@@]1(Cl)C[C@@](C)(Br)[C@H](/C=C/Cl)C[C@@H]1Br	–	–	–	> 25 µg/mL	> 25 µg/mL	> 25 µg/mL	–	–	inactive	1 mm	–	–	–	90%	1 µg/mL (≈ 2.74 µM)	zone of inhibition at 50 µg/disc [16]: 1 mm; zone of inhibition at 50 µg/disc [12]: 1 mm
C=C1C[C@H](O)[C@H](Br)C(C)(C)[C@@]12CC[C@](C)(Br)[C@@H](Cl)C2	–	–	–	–	–	–	inactive	–	–	–	–	–	–	–	10 µg/mL (≈ 24.1 µM)	inhibition zone (IZ) [14]: inactive; inhibition zone (IZ) [1]: inactive; inhibition zone (IZ) [2]: inactive; inhibition zone (IZ) [3]: inactive; inhibition zone (IZ) [27]: inactive; inhibition zone (IZ) [15]: inactive; inhibition zone (Toxicity) [5]: Not Active
C=C1C[C@H](OC(C)=O)[C@H](Br)C(C)(C)[C@@]12CC[C@](C)(Br)[C@@H](Cl)C2	–	–	–	> 25 µg/mL	> 25 µg/mL	> 25 µg/mL	inactive	inactive	inactive	1 mm	–	–	–	–	–	Activity [5]: Not Active
CC1(C)C[C@@H](Br)C[C@](C)(O)[C@@]12C=C/C(=C/Br)CC2	17 µg/mL (≈ 45 µM)	< 1 µg/mL	< 1 µg/mL	> 25 µg/mL	> 25 µg/mL	> 25 µg/mL	–	–	inactive	2 mm	Active	inactive	inactive	–	4.5 µg/mL (≈ 11.9 µM)	zone of inhibition at 50 µg/disc [28]: 1 mm; zone of inhibition at 50 µg/disc [22]: 3 mm; zone of inhibition at 50 µg/disc [29]: 1 mm; mortality at 24 h, 0.5 mg/mL [30]: 100%
CC1(C)O[C@](C)([C@H]2CC[C@](C)(Cl)[C@@H](Br)C2)CC[C@H]1Br [CAESPITANE]	–	–	–	> 25 µg/mL	> 25 µg/mL	> 25 µg/mL	inactive	inactive	–	–	–	–	–	40%	–	Activity [1]: inactive; Activity [2]: inactive; Activity [3]: inactive; zone of inhibition at 50 µg/disc [31]: 1 mm
CC1(C)O[C@](C)([C@H]2CC[C@](C)(Cl)[C@@H](Br)C2)[C@H](O)C[C@H]1Br [CAESPITOL]	–	–	–	> 25 µg/mL	> 25 µg/mL	> 25 µg/mL	inactive	inactive	–	–	Active	inactive	inactive	70%	100 µg/mL (≈ 231 µM)	Activity [1]: inactive; Activity [2]: inactive; Activity [3]: inactive; zone of inhibition at 50 µg/disc [31]: 3 mm
C=C1C[C@@H](O)[C@@H](Br)C(C)(C)[C@]12CC[C@](C)(Cl)[C@@H](Br)C2 [CARTILAGINEOL]	–	–	–	–	–	–	–	–	–	–	–	–	–	–	–	IC50 [32]: 1 µg/mL (≈ 2.41 µM); IC50 [33]: 0.25 µg/mL (≈ 0.603 µM); IC50 [34]: 1 µg/mL (≈ 2.41 µM); IC50 [35]: 5 µg/mL (≈ 12.1 µM); inhibition zone (IZ) [13]: inactive; inhibition zone (IZ) [14]: inactive; inhibition zone (IZ) [1]: inactive; inhibition zone (IZ) [2]: inactive; inhibition zone (IZ) [3]: inactive; inhibition zone (IZ) [27]: inactive; inhibition zone (IZ) [15]: inactive; inhibition zone (Toxicity) [5]: Not Active
C=C1C[C@H](O)[C@H](Br)C(C)(C)[C@@]12CCC(C)=C(Cl)C2 [ELATOL]	< 1 µg/mL	< 1 µg/mL	< 1 µg/mL	> 25 µg/mL	> 25 µg/mL	> 25 µg/mL	–	–	inactive	25 mm	Active	inactive	inactive	–	–	IC50 [32]: 0.1 µg/mL (≈ 0.3 µM); IC50 [33]: 0.1 µg/mL (≈ 0.3 µM); IC50 [34]: 0.1 µg/mL (≈ 0.3 µM); IC50 [35]: 1 µg/mL (≈ 3 µM); zone of inhibition at 50 µg/disc [28]: 2 mm; zone of inhibition at 50 µg/disc [22]: 3 mm; zone of inhibition at 50 µg/disc [36]: 7 mm; zone of inhibition at 50 µg/disc [29]: 25 mm; mortality at 24 h, 0.5 mg/mL [30]: 100%; MCC [37]: 3.3 µg/mL; IC50 [38]: 0.92 µg/mL (≈ 2.76 µM)
C=C1C[C@@H](O)[C@@H](Br)C(C)(C)[C@]12CC[C@@](C)(Br)[C@H](Cl)C2 [OBTUSOL]	7 µg/mL (≈ 16.9 µM)	< 1 µg/mL	1.5 µg/mL (≈ 3.62 µM)	> 25 µg/mL	> 25 µg/mL	> 25 µg/mL	inactive	inactive	–	–	Active	inactive	inactive	80%	50 µg/mL (≈ 121 µM)	zone of inhibition at 50 µg/disc [39]: 6 mm; zone of inhibition at 50 µg/disc [31]: 3 mm
